SMILES strings stand for the structures.

Broadly, the melting point is the temperature, or range, at which the solid turns liquid.

Chain of endogenous glucocorticoid receptor (P04150 whole entry): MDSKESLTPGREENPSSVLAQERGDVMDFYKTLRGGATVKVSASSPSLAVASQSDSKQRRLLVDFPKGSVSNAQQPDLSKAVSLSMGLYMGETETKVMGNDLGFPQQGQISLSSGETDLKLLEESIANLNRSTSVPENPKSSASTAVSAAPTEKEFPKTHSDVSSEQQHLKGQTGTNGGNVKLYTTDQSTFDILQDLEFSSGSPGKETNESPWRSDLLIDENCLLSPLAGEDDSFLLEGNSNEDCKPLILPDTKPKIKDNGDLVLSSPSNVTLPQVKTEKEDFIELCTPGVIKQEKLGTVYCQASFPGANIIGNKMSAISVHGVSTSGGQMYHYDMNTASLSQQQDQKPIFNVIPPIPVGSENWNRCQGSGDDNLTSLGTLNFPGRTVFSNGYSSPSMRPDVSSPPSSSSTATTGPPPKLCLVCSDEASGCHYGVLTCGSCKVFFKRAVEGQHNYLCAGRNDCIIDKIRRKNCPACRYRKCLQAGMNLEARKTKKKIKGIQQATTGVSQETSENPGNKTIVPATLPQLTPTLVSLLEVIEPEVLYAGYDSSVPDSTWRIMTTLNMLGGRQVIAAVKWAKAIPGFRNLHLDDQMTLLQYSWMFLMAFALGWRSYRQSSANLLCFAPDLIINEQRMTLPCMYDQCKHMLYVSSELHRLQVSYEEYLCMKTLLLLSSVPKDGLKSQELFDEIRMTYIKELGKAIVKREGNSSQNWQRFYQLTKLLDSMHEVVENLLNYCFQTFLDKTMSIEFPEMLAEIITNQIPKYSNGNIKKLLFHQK

The target of one series is T1, AR (Rattus norvegicus, UniProt P15207).
T1 sequence (P15207 1-902): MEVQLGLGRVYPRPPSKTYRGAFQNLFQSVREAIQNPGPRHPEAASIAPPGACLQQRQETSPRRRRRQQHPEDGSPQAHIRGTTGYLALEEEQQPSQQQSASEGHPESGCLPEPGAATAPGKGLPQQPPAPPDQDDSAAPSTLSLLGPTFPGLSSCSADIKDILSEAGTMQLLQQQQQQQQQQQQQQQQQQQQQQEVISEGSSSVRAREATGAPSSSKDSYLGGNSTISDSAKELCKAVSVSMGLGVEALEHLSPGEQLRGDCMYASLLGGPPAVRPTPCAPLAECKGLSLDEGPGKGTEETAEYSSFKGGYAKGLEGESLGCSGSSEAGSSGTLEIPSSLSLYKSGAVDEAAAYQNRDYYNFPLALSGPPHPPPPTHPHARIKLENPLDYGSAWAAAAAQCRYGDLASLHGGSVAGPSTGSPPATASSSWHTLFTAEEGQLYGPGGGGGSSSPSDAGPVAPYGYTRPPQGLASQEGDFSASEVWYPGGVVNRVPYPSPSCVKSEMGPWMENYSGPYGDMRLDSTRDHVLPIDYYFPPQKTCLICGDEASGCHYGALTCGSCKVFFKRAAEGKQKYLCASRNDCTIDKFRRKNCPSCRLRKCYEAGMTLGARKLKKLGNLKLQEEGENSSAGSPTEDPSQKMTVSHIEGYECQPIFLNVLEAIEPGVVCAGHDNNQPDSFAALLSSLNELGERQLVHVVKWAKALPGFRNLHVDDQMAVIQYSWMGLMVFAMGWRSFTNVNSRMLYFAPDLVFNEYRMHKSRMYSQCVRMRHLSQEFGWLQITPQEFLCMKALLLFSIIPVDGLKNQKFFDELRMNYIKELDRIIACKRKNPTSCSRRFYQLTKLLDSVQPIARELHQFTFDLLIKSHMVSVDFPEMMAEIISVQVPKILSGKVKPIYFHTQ
Conditions: immature castrated rats. An excerpt: The activity of compounds of the present invention as AR agonists was investigated in an immature male rat model, a recognized test of anabolic effects in muscle and sustaining effects in sex organs for a given compound, as described in L. G. Hershberger et al., Proc. Soc. […] Biol. Med., 83, 175 (1953); B. L. Beyler et al, “Methods for evaluating anabolic and catabolic agents in laboratory animals”, J. Amer. Med. Women's Ass., 23, 708 (1968); H. Fukuda et al., “Investigations of the levator ani muscle as an anabolic steroid assay”, Nago Dai. Yak. Ken. Nem. 14, 84 (1966) the disclosures of which are herein incorporated by reference.
The basis of this assay lies in the well-defined action of androgenic agents on the maintenance and growth of muscle tissues and sexual accessory organs in animals and man. […] J. Anat. […] Ital. Biol. Sper. […] II. […] Ital. Biol. Sper. 42, 1600 (1966); A. Boris et al., Steroids 15, 61 (1970). As described above, the effects of androgens on maintenance of male sexual accessory organs, such as the prostate and seminal vesicles, is well described. Castration results in rapid involution and atrophy of the prostate and seminal vesicles. This effect can be reversed by exogenous addition of androgens. […]
In the case of `CCC(=O)O[C@H]1CC[C@H]2[C@@H]3CCC4=CC(=O)CC[C@]4(C)[C@H]3CC[C@]12C` [TP, testosterone propionate], the “EC50 (organ weight increase)” value is around 0.03 mg.

The series is the same for the next values; noted with them: organ weight increase, castrated rats.
Consider `CCC(=O)O[C@H]1CC[C@H]2[C@@H]3CCC4=CC(=O)CC[C@]4(C)[C@H]3CC[C@]12C` [TP, testosterone propionate], for which the “potency relative to free T” value was 10–30 fold.

For another series, the target named is endogenous glucocorticoid receptor (Homo sapiens, UniProt P04150). Conditions: concentration ≦10 µM; A549 cells stimulated with 10 ng/ml PMA; versus buffer control. How it is done:
A549 cells, which contain endogenous glucocorticoid receptor, were stably transfected with an AP-1 DNA binding site attached to the luciferase gene. […] Cells are plated the day before the assay at approximately 40000 cells/well. […] Activity is measured by analysis in a luminometer as compared to control experiments treated with buffer or dexamethasome.
Turning to `C[C@@H]1C[C@H]2[C@@H]3CCC4=CC(=O)C=C[C@]4(C)[C@@]3(F)[C@@H](O)C[C@]2(C)[C@@]1(O)C(=O)CO` [dexamethasone], the “% inhibition of the reporter system (suppresses activity)” value amounted to 65%.

Test system in a further series: not given
Details: not given
`N#Cc1ccc(N2C(=O)C3=CCCN3C2=O)c2ccccc12` returned a melting point of 230 to 232 °C.

For the compound `C[C@@]12C(=O)N(c3ccc(C#N)c4ccccc34)C(=O)N1CC[C@@H]2O`, the melting point is 234 to 235 °C.

As for `C[C@]12C(=O)N(c3ccc(C#N)c4ccccc34)C(=O)N1CC[C@H]2O`, the melting point lay within 232 to 234 °C.

Regarding `N#Cc1ccc(N2C(=O)[C@@H]3[C@H](O)CCN3C2=S)c2ccccc12`, the melting point lay in the range of 215 to 216 °C.

With `CC(C)(C)[C@H]1N(c2ccc(C#N)c3ccccc23)C(=O)[C@@H]2C[C@@H](O)CN21`, the melting point was in the range of 155 to 157 °C.

In turn, `N#Cc1ccc(N2C(=O)[C@H]3[C@@H](O)CCCN3C2=O)c2ccccc12` registered a melting point of 244 °C.

`CC(C)(C)OC(=O)N1CCN2C(=O)N(c3ccc(C#N)c4ccccc34)C(=O)C2C1` (stereo not shown) registered a melting point of 222 to 224 °C.

As for `N#Cc1ccc(N2C[C@@H]3[C@H](O)CCN3C2=O)c2ccccc12`, the melting point lay within 226 to 228 °C.

Turning to `N#Cc1ccc(N2CC3[C@@H](O)CCN3C2=O)c2ccccc12` (stereo partly shown), the melting point is 226 to 228 °C.

The compound `O=C1C2C[C@@H](OCc3ccccc3)CN2C(=O)N1c1ccc([N+](=O)[O-])c2ccccc12` (stereo partly shown) gave a melting point of 120 to 122 °C.

On to `O=C1C2CCCCN2C(=O)N1c1ccc([N+](=O)[O-])c2ccccc12` (racemic), for which the melting point is 190 to 192 °C.

Compound `O=C1[C@H]2[C@@H](O)CCN2C(=O)N1c1ccc(Br)c2ccccc12` (racemic) showed a melting point of 204 to 206 °C.

`CO[C@H]1CCN2C(=O)N(c3ccc(C#N)c4ccccc34)C(=O)[C@@H]12` (racemic) displayed a melting point of 185 to 186 °C.

`CC(=O)O[C@@H]1CCN2C(=O)N(c3ccc(C#N)c4ccccc34)C(=O)[C@H]12` (racemic) showed a melting point of 105 °C.

For `N#Cc1ccc(N2C(=O)[C@@H]3[C@H](O)CCCN3C2=O)c2ccccc12` (racemic), the melting point is 243 °C.

`Cl.N#Cc1ccc(N2C(=O)C3CNCCN3C2=O)c2ccccc12` (racemic): the melting point amounted to 200 °C.

The compound `CS(=O)(=O)N1CCN2C(=O)N(c3ccc(C#N)c4ccccc34)C(=O)C2C1` (racemic) returned a melting point of 207 to 216 °C.

`N#Cc1ccc(N2C(=O)[C@H]3[C@@H](O)[C@@H](O)CN3C2=O)c2ccccc12` (stereo in doubt) gave a melting point of 246 °C.

The compound `N#Cc1ccc(N2C(=O)[C@@H]3[C@H](O)[C@H](O)CN3C2=O)c2ccccc12` (stereo in doubt) came in with a melting point of 225 °C.

Source of the values: patent publication US6992102B2, “Bicyclic modulators of androgen receptor function” (Bristol-Myers Squibb Company, priority 2001, dated 2006).
